Like-named read-outs stand apart in the source and are kept apart here. Marks after values point to notes of the source that are not given here.
Experiments:
[1] = tested on: HepG2 cells; test: CAA (cellular antioxidant activity) assay; type: cell-based; conditions: Homo sapiens
Description: For the CAA assay, human hepatocellular carcinoma HepG2 cells (ATCC, Manassas, VA, USA) were seeded into a 96-well microplate at a density of 1 × 10^5 cells/well in EMEM medium supplemented with 10% of FBS, 2 mM L-glutamine and 1 × antibiotic antimycotic solution. The cells were maintained in a CO2 incubator (5% CO2, 37 °C, Memmert GmbH & Co, Büchenbach, Germany). The following day, the plates were washed with PBS and new fresh DMEM was added into each well supplemented with tested samples in the concentration range of 6.25–100 µM and fluorescent probe DCFH-DA (12.5 mg/L). After 1 h of incubation at 37 °C, the medium was replaced with AAPH solution (0.16 mg/mL in PBS), except for the negative control, where PBS was added instead. Directly, the fluorescence was recorded for 2 h in 5 min steps at 485/540 nm excitation/emission (ex./em.).

[2] = tested on: nitric oxide (NO) production by LPS-stimulated macrophages (RAW 264.7); test: NO production by LPS-stimulated macrophages (Griess); type: cell-based, mouse; conditions: for IC50: Mus musculus, read-out: NO Production, concentration necessary to halve NO production (IC50)
Description: Immunomodulatory effect of tested compounds was determined as their ability to decrease nitric oxide (NO) production by LPS-stimulated macrophages (RAW 264.7, Sigma-Aldrich). Briefly, the cells were seeded into the 96-well plate at a density of 1 × 10^6 cells/mL in DMEM medium (supplemented with 2 mM L-glutamine and 1 × antibiotic antimycotic solution). After 48 h, the cells were washed with PBS. The MEM medium enriched with LPS (1 µg/mL) was added to the wells, together with the samples in the concentration range of 6.25–100 µM at a final volume of 100 µL. Indomethacin, a non-steroidal anti-inflammatory drug, was tested as a positive control in the concentration range 6.25–100 µM. After 24 h, the medium was used for the quantification of NO and inflammatory cytokines.
After 15 min, absorbance was recorded at 540 nm.

[3] = tested on: ABCC1 (MRP1); test: ABCC1 mRNA expression (real-time PCR); type: cell-based, human
Description: (§1) The A2780/DOX cell line was seeded into 5 cm Petri dishes with DMEM medium at 1 × 10^5 cell/mL. After 24 h, the dishes were washed with PBS and new DMEM medium supplemented with doxorubicin (at concentration equal to IC25) and samples (10 µM) were added. After 48 h of treatment, the cells were washed with PBS and harvested using the standard trypsin-EDTA procedure. The harvested cells were centrifuged (3200× g; 10 min, 4 °C). The supernatant was discarded, and the pellets were washed with 1.5 mL of cooled PBS (5400× g; 10 min, 4 °C). The washing step was repeated with 1 mL of PBS and the cells were centrifuged again (10,000× g; 3 min, 4 °C). Afterwards, the pellets were resuspended in 1 mL of Trizol (Invitrogen, Carlsbad, CA, USA) and transferred into pre-cooled RNase-free microfuge tubes. The samples were stored at −80 °C.
(§2) A Quant-iT RiboGreen RNA Assay Kit (Invitrogen) was used to determine the RNA concentration using the Infinite M200 plate reader (Tecan, Männedor, Switzerland). The cDNA was prepared from 0.5 µg of total RNA using a RevertAid First Strand Synthesis cDNA Kit (MBI Fermentas, Vilnius, Lithuania). The amplification of the ubiquitin C gene fragment was used to determine the quality of cDNA.
(§3) The experiment was performed using the ViiA7 Real-Time polymerase chain reaction (PCR) System (Life Technologies, Camarillo, CA, USA) with a 384-well block. Before quantitative real-time PCR, the master mix was prepared by mixing 2 µL of 8 × diluted cDNA, 1.75 µL of RNase free water, 1 µL of 5 × HotFIREPol Probe quantitative PCR Mix Plus (Solis Biodyne, Tartu, Estonia) and 0.25 µL of specific 20 × TaqMan Gene Expression Assay (Life Technologies), giving 5 µL of final reaction volume. Cycling parameters were: initial hold at 50 °C for 2 min and denaturation at 95 °C for 10 min, followed by 45 cycles consisting of denaturation at 95 °C for 15 s and annealing/extension at 60 °C for 1 min. After each extension phase, the fluorescence values were acquired. Duplicate samples were used for measurement and samples with a standard deviation of duplicates > 1.0 cycle threshold (Ct) were re-analyzed. The real time PCR procedure was maintained according to MIQE (Minimum information for publication of quantitative real-time PCR experiments) guidelines. The software REST 2009 (Qiagen, Hilden, Germany) served to compare relative transcript levels of genes in the cell line.

[4] = tested on: A2780/DOX; test: Sensitization of the MDR cell line to doxorubicin; type: cell-based, human
Description: A multidrug resistant ovarian sub-line resistant to doxorubicin (A2780/DOX, Sigma-Aldrich) was cultivated in DMEM medium with 10% FBS and 1 × antibiotic antimycotic solution. Every other passage, doxorubicin at the final concentration of 0.1 µM was added to the culture medium to maintain the resistance of the cell line. To perform experiments, the cells were seeded at 1 × 10^5 cell/mL into the wells of a 96-well plate and incubated for 24 h. Afterwards, the cells were washed with PBS and fresh DMEM medium with tested compounds at 10, 20 and 30 µM were added to each well, except for the control wells. Subsequently, the cells were exposed to increasing concentrations of doxorubicin (0.6–20 µM) for 72 h. After incubation, the resazurin assay was performed as described above. The IC50 of doxorubicin was calculated for both the control and the samples and the fold change was counted up. […] The fold change lower than 1 means an antagonistic effect. (1) FOLD CHANGE=IC50 value of DOX cells treated with chemotherapeutic /IC50 value of DOX cells treated with chemotherapeutic and compound

[5] = tested on: ABCA1; test: ABCA1 mRNA expression (real-time PCR); type: cell-based, human; conditions: A2780/DOX
Description: as §1, §2, §3

[6] = tested on: ABCA5; test: ABCA5 mRNA expression (real-time PCR); type: cell-based, human; conditions: A2780/DOX
Description: as §1, §2, §3

[7] = tested on: IL-6; test: IL-6 release by LPS-induced macrophages (ELISA); type: cell-based, mouse; conditions: for IL-6 (pg/mL): untreated LPS control 1148 ± 35; for IC50: Mus musculus, RAW264.7, RAW 264.7, LPS + compound 6 h, read-out: IL-6, concentration necessary to halve the release (IC50)
Description: To determine the level of inflammatory cytokine IL-6, macrophages were cultivated with LPS (1 µg/mL) and the tested compounds (7–50 µM) for 6 h. After incubation, the plates were centrifuged (1000× g; 10 min, 4 °C) and then the medium was removed and frozen to −80 °C. Prior to the detection, the samples were diluted in ELISA diluent in a 1:10 ratio. Production of the cytokine was determined by uncoated ELISA performed according to the manufacturer’s instructions.

[8] = tested on: ABCC10; test: ABCC10 mRNA expression (real-time PCR); type: cell-based, human; conditions: A2780/DOX
Description: as §1, with “After 24 h, the dishes were washed with PBS and new DMEM medium supplemented with doxorubicin (at concentration equal to IC25) and samples (10 µM) were added.” left out
as §2, §3

[9] = HepG2, read-out: CAA, concentration necessary to halve the fluorescence response (IC50)
[10] = A2780/DOX, 10 µM combined with doxorubicin at IC25, 48 h
[11] = 10 µM combined with doxorubicin at IC25, 48 h
[12] = 10 µM, 48 h, without doxorubicin
[13] = HepG2, DCFH-DA/AAPH, read-out: CAA, concentration necessary to halve the fluorescence response (IC50)
[14] = RAW264.7, RAW 264.7, LPS 1 µg/mL, 24 h
[15] = A2780/DOX, 10 µM, 48 h, without doxorubicin

| SMILES | IC50 [1, 9] [µM] | IC50 ([2]; RAW264.7, 24 h) [µM] | ABCC1 Expression Difference [3, 10] | Doxorubicin-sensitization rate (ratio of IC50 of doxorubicin and doxorubicin + tested compound) ([4]; compound 10 µM) | Doxorubicin-sensitization rate (ratio of IC50 of doxorubicin and doxorubicin + tested compound) ([4]; compound 20 µM) | Doxorubicin-sensitization rate (ratio of IC50 of doxorubicin and doxorubicin + tested compound) ([4]; compound 30 µM) | ABCA1 Expression Difference [5, 11] | ABCA5 Expression Difference [6, 11] | IL-6 (pg/mL) ([7]; compound 7 µM) | IL-6 (pg/mL) ([7]; compound 15 µM) | IL-6 (pg/mL) ([7]; compound 50 µM) | ABCC10 Expression Difference [8, 11] | ABCC10 Expression Difference [8, 12] | ABCA1 Expression Difference [5, 12] | IC50 [1, 13] [µM] | IC50 [2, 14] [µM] | Doxorubicin-sensitization rate (ratio of IC50 of doxorubicin and doxorubicin + tested compound) ([4]; compound 50 µM) | IC50 [7] [µM] | ABCC1 Expression Difference [3, 15] | ABCA5 Expression Difference [6, 12] | also measured |
| --- | --- | --- | --- | --- | --- | --- | --- | --- | --- | --- | --- | --- | --- | --- | --- | --- | --- | --- | --- | --- | --- |
| COc1cc([C@H]2Oc3cc(-c4oc5cc(O)cc(O)c5c(=O)c4O)ccc3O[C@@H]2CO)ccc1O [Dehydrosilybin A, 2,3-dehydrosilybin A] | 11.8 ± 0.7 | 23.2 ± 1.4 | 0.907 | (2.1 ± 0.3) × | (2.5 ± 0.2) × | (9.5 ± 0.7) × | 4.172 | 1.223 | 292 ± 15 ^a pg/mL | 79 ± 8 ^a pg/mL | 0 ± 0 ^a pg/mL | 1.214 | 1.200 |  |  |  |  |  |  |  | Doxorubicin-sensitization rate (ratio of IC50 of doxorubicin and doxorubicin + tested compound) ([4]; compound 30 µM, listed as dehydrosilybin A): ~10 ×; IL-6 (pg/mL) ([7]; compound 50 µM, listed as dehydrosilybin A): under the detection limit of the ELISA assay; IL-6 modulation effect higher in comparison with its diastereomeric mixture ([7]; vs dehydrosilybin AB): approximately 70% |
| COc1cc(C2Oc3cc(-c4oc5cc(O)cc(O)c5c(=O)c4O)ccc3OC2CO)ccc1O (centres unmarked) [Dehydrosilybin AB, 2,3-dehydrosilybin] | 9.2 ± 0.5 | 19.1 ± 0.2 | 1.301 | (2.4 ± 0.2) × |  |  | 3.122 | 1.254 | 997 ± 41 ^d pg/mL | 441 ± 19 ^d pg/mL | 0 ± 0 ^a pg/mL | 1.323 | 1.471 | 1.803 |  |  |  |  |  |  | IL-6 (pg/mL) ([7]; compound 50 µM, listed as dehydrosilybin AB): under the detection limit of the ELISA assay |
| COc1cc([C@@H]2Oc3cc(-c4oc5cc(O)cc(O)c5c(=O)c4O)ccc3O[C@H]2CO)ccc1O [Dehydrosilybin B, 2,3-dehydrosilybin B] | 12.1 ± 0.4 | 31.3 ± 2.4 | 1.213 | (2.0 ± 0.1) × |  |  | 4.412 | 1.707 | 582 ± 19 ^c pg/mL | 301 ± 9 ^c pg/mL | 122 ± 3 ^b,c pg/mL | 1.618 | 1.107 |  |  |  |  |  |  |  | immunomodulation effect lower compared to its diastereomeric mixture ([2]; NO production, vs dehydrosilybin AB): approximately 40% |
| COc1cc([C@H]2Oc3cc([C@H]4Oc5cc(O)cc(O)c5C(=O)[C@@H]4O)ccc3O[C@@H]2CO)ccc1O [Silybin A, silybin A] |  |  | 1.711 | (1.3 ± 0.1) × | (1.6 ± 0.2) × | (1.9 ± 0.1) × | 2.702 | 2.427 | 422 ± 42 ^b pg/mL | 271 ± 15 ^c pg/mL | 125 ± 16 ^c pg/mL | 1.812 | 1.260 |  | 9.8 ± 0.4 | 26.7 ± 1.6 | (3.6 ± 0.3) × | 8.4 ± 0.3 |  |  |  |
| COc1cc(C2Oc3cc([C@H]4Oc5cc(O)cc(O)c5C(=O)[C@@H]4O)ccc3OC2CO)ccc1O (some centres unmarked) [Silybin AB, silybin] |  |  | 1.640 | (1.4 ± 0.1) × | (1.6 ± 0.1) × | (1.7 ± 0.1) × | 2.922 | 2.122 | 311 ± 18 ^a pg/mL | 173 ± 5 ^b pg/mL | 83 ± 4 ^b pg/mL | 1.855 | 1.857 | 2.021 | 10.7 ± 0.9 | 23.6 ± 1.2 | (7.7 ± 0.4) × | 4.8 ± 0.3 | 2.521 | 1.933 | Doxorubicin-sensitization rate (ratio of IC50 of doxorubicin and doxorubicin + tested compound) ([4]; compound 50 µM, listed as silybin AB): ~10 × |
| COc1cc([C@@H]2Oc3cc([C@H]4Oc5cc(O)cc(O)c5C(=O)[C@@H]4O)ccc3O[C@H]2CO)ccc1O [Silybin B, silybin B] |  |  |  | (1.4 ± 0.1) × | (1.5 ± 0.2) × | (1.8 ± 0.1) × | 2.415 | 1.821 | 297 ± 23 ^a pg/mL | 166 ± 6 ^b pg/mL | 37 ± 2 ^a pg/mL | 1.349 | 0.340 |  | 8.9 ± 0.3 | 26 ± 3 | (3.3 ± 0.4) × | 5.2 ± 0.2 | 0.413 | 0.356 | downregulation of ABCC1 (MRP1) expression [3, 12]: 59%; ABCC1 Treated vs. Untreated [3, 15]: DOWN; ABCA5 Treated vs. Untreated [6, 12]: DOWN; ABCC10 Treated vs. Untreated [8, 12]: DOWN |
